Measurements published in ChEMBL document CHEMBL1201862, “PubChem BioAssay data set” (2004).
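Cells were grown in 96-well plates and exposed to each compound for 48 hours at five concentrations; endpoints were interpolated linearly between bracketing concentrations, or set to the highest concentration if not reached. GI50 is the concentration that inhibits growth by half.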 Active and inactive are the calls of the source. No stated cut-off is given here; in the data, active = GI50 up to about 1.1 µM and inactive = higher.

How the values were obtained:
Test in all cases: inhibition of tumour cell growth, NCI panel, 48 h
HCT-15 = test system: HCT-15
LXFL 529 = test system: LXFL 529
SW-620 = test system: SW-620
IGROV-1 = test system: IGROV-1
SNB-78 = test system: SNB-78
CAKI-1 = test system: CAKI-1
SK-MEL-28 = test system: SK-MEL-28
DMS-114 = test system: DMS-114
SF-295 = test system: SF-295
SNB-19 = test system: SNB-19
SF-539 = test system: SF-539
OVCAR-3 = test system: OVCAR-3
SK-OV-3 = test system: SK-OV-3
U-251 = test system: U-251
KM-20L2 = test system: KM-20L2
SNB-75 = test system: SNB-75
CCRF-CEM = test system: CCRF-CEM
DMS-273 = test system: DMS-273
NCI-H460 = test system: NCI-H460
Malme-3M = test system: Malme-3M
SK-MEL-2 = test system: SK-MEL-2
LOX IMVI = test system: LOX IMVI
EKVX = test system: EKVX
K562 = test system: K562
SN12C = test system: SN12C
UO-31 = test system: UO-31
SF-268 = test system: SF-268
MOLT-4 = test system: MOLT-4
A549 = test system: A549
HOP-18 = test system: HOP-18
RPMI-8226 = test system: RPMI-8226
ACHN = test system: ACHN
NCI-H226 = test system: NCI-H226
A498 = test system: A498
HT-29 = test system: HT-29
TK-10 = test system: TK-10
HCT-116 = test system: HCT-116
OVCAR-8 = test system: OVCAR-8
DLD-1 = test system: DLD-1
HOP-62 = test system: HOP-62
RXF 393 = test system: RXF 393
XF498 = test system: XF498
HOP-92 = test system: HOP-92
NCI-H23 = test system: NCI-H23
786-0 = test system: 786-0
HCC 2998 = test system: HCC 2998
M19-MEL = test system: M19-MEL
OVCAR-5 = test system: OVCAR-5
M14 = test system: M14
OVCAR-4 = test system: OVCAR-4
UACC-257 = test system: UACC-257
UACC-62 = test system: UACC-62
COLO 205 = test system: COLO 205
NCI-H522 = test system: NCI-H522
KM12 = test system: KM12
SK-MEL-5 = test system: SK-MEL-5
HL-60 = test system: HL-60
SR = test system: SR

Measured: GI50

CCCCc1c2cnccc2c(CCCC)c2c1[nH]c1ccccc12
inactive: LXFL 529 11.4 µM | SW-620 12.9 µM | IGROV-1 12.4 µM | SNB-78 25.2 µM | CAKI-1 5.9 µM | SK-MEL-28 6.34 µM | DMS-114 3.99 µM | SF-295 7.19 µM | SNB-19 7.19 µM | SF-539 3.42 µM | OVCAR-3 5.26 µM | SK-OV-3 27.4 µM | U-251 12.8 µM | KM-20L2 13.6 µM | SNB-75 5.87 µM | CCRF-CEM 9.38 µM | DMS-273 10.7 µM | NCI-H460 15.7 µM | Malme-3M 11.9 µM | SK-MEL-2 12.6 µM | LOX IMVI 13.7 µM | EKVX 14.6 µM | K562 3.54 µM | SN12C 18 µM | UO-31 10.4 µM | SF-268 14.9 µM | MOLT-4 2.84 µM | A549 12.1 µM | HOP-18 3.59 µM | RPMI-8226 2.9 µM | ACHN 10 µM | NCI-H226 15.7 µM | A498 15.5 µM | HT-29 9.91 µM | TK-10 19.2 µM | HCT-116 3.59 µM | OVCAR-8 12.9 µM | DLD-1 9.1 µM | HOP-62 3.85 µM | RXF 393 7.13 µM | XF498 5.19 µM | HOP-92 12.8 µM | NCI-H23 5.33 µM | 786-0 10 µM | HCC 2998 23.9 µM | M19-MEL 12.4 µM | OVCAR-5 44.9 µM | M14 15.7 µM | OVCAR-4 8.99 µM | UACC-257 15.1 µM | UACC-62 11.6 µM | COLO 205 10.3 µM | NCI-H522 12.4 µM | KM12 8.38 µM
6.84 µM: HCT-15

COc1ccc2c(OC)c3ccoc3nc2c1O
inactive: LXFL 529 > 100 µM | SW-620 > 100 µM | SK-MEL-5 > 100 µM | IGROV-1 > 100 µM | SNB-78 > 100 µM | CAKI-1 93.3 µM | SK-MEL-28 > 100 µM | DMS-114 > 100 µM | SF-295 > 100 µM | SNB-19 > 100 µM | SF-539 > 100 µM | OVCAR-3 > 100 µM | SK-OV-3 > 100 µM | U-251 > 100 µM | KM-20L2 > 100 µM | SNB-75 86.9 µM | CCRF-CEM 43.3 µM | NCI-H460 85.9 µM | Malme-3M > 100 µM | SK-MEL-2 > 100 µM | EKVX 53.8 µM | K562 > 100 µM | SN12C > 100 µM | UO-31 63.1 µM | SF-268 > 100 µM | MOLT-4 42.2 µM | A549 > 100 µM | RPMI-8226 33.7 µM | ACHN > 100 µM | A498 > 100 µM | HT-29 > 100 µM | TK-10 > 100 µM | HCT-116 > 100 µM | OVCAR-8 > 100 µM | DLD-1 78.3 µM | HOP-62 49.2 µM | XF498 > 100 µM | NCI-H23 > 100 µM | 786-0 > 100 µM | HCC 2998 > 100 µM | M19-MEL 54.8 µM | OVCAR-5 > 100 µM | M14 > 100 µM | OVCAR-4 > 100 µM | UACC-257 39.5 µM | UACC-62 77.8 µM | COLO 205 > 100 µM | NCI-H522 > 100 µM | KM12 > 100 µM
37 µM: HCT-15
active: HOP-18 0.114 µM

COc1cccc(/C=C2\C(=O)N(C(=O)Cc3ccccc3)N=C2C)c1
inactive: SW-620 > 100 µM | SK-MEL-5 > 100 µM | SNB-78 > 100 µM | CAKI-1 > 100 µM | SK-MEL-28 > 100 µM | HL-60 > 100 µM | DMS-114 > 100 µM | SF-295 > 100 µM | SNB-19 > 100 µM | SF-539 > 100 µM | OVCAR-3 > 100 µM | U-251 > 100 µM | SNB-75 > 100 µM | CCRF-CEM > 100 µM | DMS-273 > 100 µM | NCI-H460 > 10 µM | Malme-3M > 100 µM | SK-MEL-2 > 100 µM | LOX IMVI > 100 µM | EKVX > 100 µM | K562 > 100 µM | SN12C > 100 µM | SR > 100 µM | UO-31 > 100 µM | SF-268 > 100 µM | MOLT-4 > 100 µM | A549 > 100 µM | HOP-18 12.4 µM | RPMI-8226 > 100 µM | ACHN > 100 µM | NCI-H226 > 100 µM | HT-29 > 100 µM | TK-10 > 100 µM | HCT-116 > 100 µM | OVCAR-8 > 100 µM | DLD-1 > 100 µM | HOP-62 > 100 µM | XF498 > 100 µM | NCI-H23 > 100 µM | 786-0 > 100 µM | HCC 2998 > 100 µM | M19-MEL > 100 µM | OVCAR-5 > 100 µM | M14 > 100 µM | OVCAR-4 > 100 µM | UACC-257 > 100 µM | COLO 205 > 100 µM | NCI-H522 > 100 µM | KM12 > 100 µM
> 100 µM: HCT-15

COc1ccc(CSc2nc3ccccc3nc2-c2cccs2)cc1
inactive: SNB-78 > 100 µM | SK-MEL-28 > 100 µM | HL-60 26.4 µM | DMS-114 76 µM | SF-295 > 100 µM | SNB-19 > 100 µM | SF-539 > 100 µM | OVCAR-3 > 100 µM | SK-OV-3 > 100 µM | U-251 > 100 µM | SNB-75 > 100 µM | CCRF-CEM 15.2 µM | DMS-273 > 100 µM | Malme-3M > 100 µM | EKVX > 100 µM | K562 30.7 µM | SN12C > 100 µM | UO-31 > 100 µM | SF-268 > 100 µM | MOLT-4 56.2 µM | A549 > 100 µM | HOP-18 > 100 µM | RPMI-8226 > 100 µM | ACHN > 100 µM | HT-29 > 100 µM | HCT-116 > 100 µM | OVCAR-8 > 100 µM | XF498 > 100 µM | HOP-92 > 100 µM | NCI-H23 > 100 µM | 786-0 > 100 µM | M14 > 100 µM | OVCAR-4 > 100 µM | UACC-257 98.4 µM | COLO 205 > 100 µM

N#CC1(c2nc3ccccc3o2)C(=O)C(=O)N(C2C3CC4CC(C3)CC2C4)C(=O)C1=O (stereo not drawn)
> 100 µM: HCT-15
inactive: LXFL 529 > 100 µM | SW-620 > 100 µM | SK-MEL-5 > 100 µM | IGROV-1 > 100 µM | SNB-78 > 100 µM | CAKI-1 > 100 µM | SK-MEL-28 > 100 µM | HL-60 42 µM | DMS-114 > 100 µM | SF-295 > 100 µM | SNB-19 > 100 µM | SF-539 > 100 µM | OVCAR-3 > 100 µM | SK-OV-3 > 100 µM | U-251 > 100 µM | KM-20L2 > 100 µM | SNB-75 > 100 µM | CCRF-CEM 64.9 µM | DMS-273 > 100 µM | NCI-H460 > 100 µM | Malme-3M > 100 µM | SK-MEL-2 > 100 µM | LOX IMVI > 100 µM | EKVX > 100 µM | K562 > 100 µM | SN12C > 100 µM | SR > 100 µM | UO-31 > 100 µM | SF-268 > 100 µM | MOLT-4 > 100 µM | A549 > 100 µM | HOP-18 > 100 µM | RPMI-8226 26.4 µM | ACHN > 100 µM | NCI-H226 > 100 µM | A498 > 100 µM | HT-29 > 100 µM | TK-10 > 100 µM | HCT-116 > 100 µM | OVCAR-8 > 100 µM | HOP-62 > 100 µM | RXF 393 > 100 µM | XF498 > 100 µM | HOP-92 84.9 µM | NCI-H23 > 100 µM | 786-0 > 100 µM | HCC 2998 > 100 µM | M19-MEL > 100 µM | OVCAR-5 > 100 µM | M14 > 100 µM | OVCAR-4 > 100 µM | UACC-257 > 100 µM | UACC-62 > 100 µM | COLO 205 > 100 µM | NCI-H522 > 100 µM | KM12 > 100 µM
